Data as given in patent US9670210B2, “Cyclopropylamines as LSD1 inhibitors” (Incyte Corporation, priority 2014, dated 2017).

Target: T1, LSD-1 enzyme (Homo sapiens (Human), UniProt O60341)
Assay: not given

Compound | IC50
COCCn1cc(C(=O)N2CCC(CN[C@@H]3C[C@H]3c3ccccc3)(COC)CC2)cn1 [Example 104, (1R,2S)—N-{[1-{[1-(2-methoxyethyl)-1H-pyrazol-4-yl]carbonyl}-4-(methoxymethyl)piperidin-4-yl]methyl}-2-phenylcyclopropanamine] | < 100 nM
COCC1(CN[C@@H]2C[C@H]2c2ccccc2)CCN(C(=O)c2cnn(C)c2)CC1 [Example 105, (1R,2S)—N-({4-(methoxymethyl)-1-[(1-methyl-1H-pyrazol-4-yl)carbonyl]piperidin-4-yl}methyl)-2-phenylcyclopropanamine] | < 100 nM
COCC1(CN[C@@H]2C[C@H]2c2ccccc2)CCN(C(=O)c2cnn(CCC#N)c2)CC1 [Example 106, 3-(4-{[4-(methoxymethyl)-4-({[(1R,2S)-2-phenylcyclopropyl]amino}methyl)piperidin-1-yl]carbonyl}-1H-pyrazol-1-yl)propanenitrile] | < 100 nM
COCC1(CN[C@@H]2C[C@H]2c2ccccc2)CCN(C(=O)c2ccn(CCC#N)n2)CC1 [Example 107, 3-(3-{[4-(methoxymethyl)-4-({[(1R,2S)-2-phenylcyclopropyl]amino}methyl)piperidin-1-yl]carbonyl}-1H-pyrazol-1-yl)propanenitrile] | < 100 nM
COCC1(CN[C@@H]2C[C@H]2c2ccccc2)CCN(C(=O)c2ccn(CCO)n2)CC1 [Example 108, 2-(3-{[4-(methoxymethyl)-4-({[(1R,2S)-2-phenylcyclopropyl]amino}methyl)piperidin-1-yl]carbonyl}-1H-pyrazol-1-yl)ethanol] | < 100 nM
COCC1(CN[C@@H]2C[C@H]2c2ccccc2)CCN(C(=O)N2CCC[C@@H](O)C2)CC1 [Example 109, (3R)-1-{[4-(methoxymethyl)-4-({[(1R,2S)-2-phenylcyclopropyl]amino}methyl)piperidin-1-yl]carbonyl}piperidin-3-ol] | < 100 nM
COCC1(CN[C@@H]2C[C@H]2c2ccccc2)CCN(C(=O)N2CCC[C@H](O)C2)CC1 [Example 110, (3S)-1-{[4-(methoxymethyl)-4-({[(1R,2S)-2-phenylcyclopropyl]amino}methyl)piperidin-1-yl]carbonyl}piperidin-3-ol] | < 100 nM
COCC1(CN[C@@H]2C[C@H]2c2ccccc2)CCN(C(=O)N2CCC(O)CC2)CC1 [Example 112, 1-{[4-(methoxymethyl)-4-({[(1R,2S)-2-phenylcyclopropyl]amino}methyl)piperidin-1-yl]carbonyl}piperidin-4-ol] | < 100 nM
COCC1(CN[C@@H]2C[C@H]2c2ccccc2)CCN(C(=O)N2CCC(OC)CC2)CC1 [Example 113, (1R,2S)—N-({4-(methoxymethyl)-1-[(4-methoxypiperidin-1-yl)carbonyl]piperidin-4-yl}methyl)-2-phenylcyclopropanamine] | < 100 nM
COCC1(CN[C@@H]2C[C@H]2c2ccccc2)CCN(S(=O)(=O)c2cnn(C)c2)CC1 [Example 114, (1R,2S)—N-({4-(methoxymethyl)-1-[(1-methyl-1H-pyrazol-4-yl)sulfonyl]piperidin-4-yl}methyl)-2-phenylcyclopropanamine] | < 100 nM
COCC1(CN[C@@H]2C[C@H]2c2ccccc2)CCN(S(=O)(=O)c2ccnn2C)CC1 [Example 115, (1R,2S)—N-({4-(methoxymethyl)-1-[(1-methyl-1H-pyrazol-5-yl)sulfonyl]piperidin-4-yl}methyl)-2-phenylcyclopropanamine] | < 100 nM
COCC1(CN[C@@H]2C[C@H]2c2ccccc2)CCN(S(=O)(=O)c2ccn(C)n2)CC1 [Example 116, (1R,2S)—N-({4-(methoxymethyl)-1-[(1-methyl-1H-pyrazol-3-yl)sulfonyl]piperidin-4-yl}methyl)-2-phenylcyclopropanamine] | < 100 nM

Target: T1, LSD-1 enzyme
Assay: biochemical
Experimental: LSD1 Histone Demethylase Biochemical Assay
LANCE LSD1/KDM1A demethylase assay-10 μL of 1 nM LSD-1 enzyme (ENZO BML-SE544-0050) in the assay buffer (50 mM Tris, pH 7.5, 0.01% Tween-20, 25 mM NaCl, 5 mM DTT) were preincubated for 1 hour at 25° C. with 0.8 μL compound/DMSO dotted in black 384 well polystyrene plates. […] After stopping the reactions plates were incubated for 30 minutes and read on a PHERAstar FS plate reader (BMG Labtech).

Compound | IC50
COCC1(CN[C@@H]2C[C@H]2c2ccccc2)CCN(C(=O)N2CC(O)C2)CC1 [Example 111, 1-{[4-(methoxymethyl)-4-({[(1R,2S)-2-phenylcyclopropyl]amino}methyl)piperidin-1-yl]carbonyl}azetidin-3-ol] | < 100 nM
